Assay results as given in US20070128217A1 (priority 2003, published 2007).

Key:
[1] = system: antibodies in sera from SARS patients (sera 1a, 1b, 2, 6, 37, 62, London, SARS-yellow, SARS-green); type: binding, human; set-up: Binding of serum 6 to linear peptides of protein X1 of SARS-CoV Urbani / Binding of serum 37 to linear peptides of protein X1 of SARS-CoV Urbani / Binding of serum 6 to looped/cyclic peptide (PEPSCAN-ELISA) / Binding of serum 37 to looped/cyclic peptide (PEPSCAN-ELISA) / Binding of serum 37 to looped/cyclic peptides of protein X1 of SARS-CoV Urbani / Binding of serum 6 to linear peptides of protein X2 / Binding of serum 37 to linear peptides of protein X2 / Binding of serum 37 to looped/cyclic peptides of protein X2 of SARS-CoV Urbani / Binding of serum 6 to linear peptides of protein M of SARS-CoV Urbani / Binding of serum 37 to linear peptides of protein M of SARS-CoV Urbani / Binding of serum 6 to looped/cyclic peptides of protein M of SARS-CoV Urbani / Binding of serum 37 to looped/cyclic peptides of protein M of SARS-CoV Urbani / Binding of serum 6 to linear peptides of protein X3 of SARS-CoV Urbani / Binding of serum 37 to linear peptides of protein X3 of SARS-CoV Urbani / Binding of serum 37 to looped/cyclic peptides of protein X3 of SARS-CoV Urbani / Binding of serum 6 to linear peptides of protein X4 of SARS-CoV Urbani / Binding of serum 37 to linear peptides of protein X4 of SARS-CoV Urbani / Binding of serum 37 to looped/cyclic peptides of protein X4 of SARS-CoV Urbani / Binding of serum 6 to linear peptides of protein X5 of SARS-CoV Urbani / Binding of serum 37 to linear peptides of protein X5 of SARS-CoV Urbani / Binding of serum 37 to looped/cyclic peptides of protein X5 of SARS-CoV Urbani / Binding of serum 6 to linear peptides of protein N of SARS-CoV Urbani / Binding of serum 37 to linear peptides of protein N of SARS-CoV Urbani / Binding of serum 6 to linear peptide (PEPSCAN-ELISA) / Binding of serum 1a to looped/cyclic peptides of protein N of SARS-CoV Urbani / Binding of serum 1b to looped/cyclic peptides of protein N of SARS-CoV Urbani / Binding of serum 2 to looped/cyclic peptides of protein N of SARS-CoV Urbani / Binding of serum 6 to looped/cyclic peptides of protein N of SARS-CoV Urbani / Binding of serum 37 to looped/cyclic peptides of protein N of SARS-CoV Urbani / Binding of serum 62 to looped/cyclic peptides of protein N of SARS-CoV Urbani / Binding of serum London to looped/cyclic peptides of protein N of SARS-CoV Urbani / Binding of serum SARS-green to looped/cyclic peptides of protein N of SARS-CoV Urbani: unit not given here
[2] = system: control sera (pooled serum of ten healthy LUMC hospital workers; commercial negative donor pooled serum from the Dutch bloodbank); type: binding, human; set-up: Binding of Control serum LUMC to linear peptides / Binding of Control serum Blood-bank to linear peptides / Binding of Control serum LUMC to looped peptides / Binding of Control Serum Blood-Bank to Looped peptides / Binding of Control serum LUMC to linear peptides of the protein M of SARS-CoV Urbani / Binding of Control serum Blood-bank to linear peptides of the protein M of SARS-CoV Urbani / Binding of Control serum LUMC to looped peptides of the protein M of SARS-CoV Urbani / Binding of Control Serum Blood-Bank to Looped peptides of the protein M of SARS-CoV Urbani: unit not given here
[3] = system: rabbit serum obtained by immunizing a rabbit with the SARS-CoV strain Frankfurt 1; type: binding; set-up: Binding of a rabbit serum to linear peptides / Binding of a rabbit serum to looped peptides / Rabbit serum linear peptides / Rabbit serum looped peptides / Binding of a rabbit serum to linear peptides of protein N of SARS-CoV Urbani (Rabbit serum linear peptides) / Binding of a rabbit serum to looped/cyclic peptides of protein N of SARS-CoV Urbani (Rabbit serum looped peptides): unit not given here
[4] = system: recombinant human anti-SARS-CoV antibody 03-018; type: binding; set-up: Binding of antibody 03-018 to linear peptides of the N protein of SARS-CoV Urbani / Binding of antibody 03-018 to looped/cyclic peptides of the N protein of SARS-CoV Urbani: unit not given here

Sequence | Binding of serum 1a to linear peptides of protein N of SARS-CoV Urbani [1] | Binding of serum 1a to looped/cyclic peptides of protein N of SARS-CoV Urbani [1] | Binding of serum 1b to linear peptides of protein N of SARS-CoV Urbani [1] | Binding of serum 1b to looped/cyclic peptides of protein N of SARS-CoV Urbani [1] | Binding of serum 2 to linear peptides of protein N of SARS-CoV Urbani [1] | Binding of serum 2 to looped/cyclic peptides of protein N of SARS-CoV Urbani [1] | Binding of serum 6 to linear peptides of protein N of SARS-CoV Urbani [1] | Binding of serum 6 to looped/cyclic peptides of protein N of SARS-CoV Urbani [1] | Binding of serum 37 to linear peptides of protein N of SARS-CoV Urbani [1] | Binding of serum 37 to looped/cyclic peptides of protein N of SARS-CoV Urbani [1] | Binding of serum 62 to linear peptides of protein N of SARS-CoV Urbani [1] | Binding of serum 62 to looped/cyclic peptides of protein N of SARS-CoV Urbani [1] | Binding of serum London to linear peptides of protein N of SARS-CoV Urbani [1] | Binding of serum London to looped/cyclic peptides of protein N of SARS-CoV Urbani [1] | Binding of serum SARS-green to looped/cyclic peptides of protein N of SARS-CoV Urbani [1] | Binding of serum SARS-yellow to looped/cyclic peptides of protein N of SARS-CoV Urbani [1] | Binding of a rabbit serum to linear peptides of protein N of SARS-CoV Urbani (Rabbit serum linear peptides) [3] | Binding of a rabbit serum to looped/cyclic peptides of protein N of SARS-CoV Urbani (Rabbit serum looped peptides) [3] | Binding of antibody 03-018 to linear peptides of the N protein of SARS-CoV Urbani [4] | Binding of antibody 03-018 to looped/cyclic peptides of the N protein of SARS-CoV Urbani [4] | also measured
KQPTVTLLPAADMDD | 0.3 | 0.3 | 0.2 | 0.2 | 0.2 | 0.2 | 0.2 | 0.0 | 1.2 | 0.4 | 0.8 | 0.3 | 0.6 | 0.2 | 0.6 | 0.3 | 0.1 | 0.1 | 0.1 | 0.2 | Binding of serum SARS-green to linear peptides of protein N of SARS-CoV Urbani [1]: 2.4; Binding of serum SARS-yellow to linear peptides of protein N of SARS-CoV Urbani [1]: 1.1; Control Serum Blood-Bank Looped peptides [2]: 0.4; Control serum Blood-bank linear peptides [2]: 0.7; Control serum LUMC linear peptides [2]: 0.7; Control serum LUMC looped peptides [2]: 0.3
YYLGTGPEASLPYGA | 0.3 | 0.4 | 0.2 | 0.4 | 0.2 | 0.4 | 0.2 | 0.3 | 0.7 | 0.9 | 0.7 | 0.7 | 0.4 | 0.5 | 0.5 | 0.7 | 0.1 | 0.5 | 0.1 | 0.2 | Binding of serum SARS-green to linear peptides of protein N of SARS-CoV Urbani [1]: 0.2; Binding of serum SARS-yellow to linear peptides of protein N of SARS-CoV Urbani [1]: 0.8; Binding of Control Serum Blood-Bank to Looped peptides [2]: 0.8; Binding of Control serum Blood-bank to linear peptides [2]: 0.7; Binding of Control serum LUMC to linear peptides [2]: 0.7; Binding of Control serum LUMC to looped peptides [2]: 0.8
SASAFFGMSRIGMEV | 0.3 | 0.5 | 0.2 | 0.3 | 0.2 | 0.6 | 0.2 | 0.5 | 0.7 | 0.8 | 0.6 | 0.6 | 0.5 | 1.6 | 0.4 | 0.9 | 0.1 | 0.6 | 0.1 | 0.2 | Binding of serum SARS-green to linear peptides of protein N of SARS-CoV Urbani [1]: 0.4; Binding of serum SARS-yellow to linear peptides of protein N of SARS-CoV Urbani [1]: 0.7; Control Serum Blood-Bank Looped peptides [2]: 0.7; Control serum Blood-bank linear peptides [2]: 0.7; Control serum LUMC linear peptides [2]: 0.6; Control serum LUMC looped peptides [2]: 0.7
GGSQASSRSSSRSRG |  | 0.3 |  | 0.2 |  | 0.4 |  | 0.4 |  | 0.5 |  | 0.4 |  | 0.4 | 0.0 | 0.3 | 0.2 | 0.5 | 0.1 | 0.2 | Binding of serum 1a to linear peptide (PEPSCAN-ELISA) [1]: 0.3; Binding of serum 1b to linear peptide (PEPSCAN-ELISA) [1]: 0.1; Binding of serum 2 to linear peptide (PEPSCAN-ELISA) [1]: 0.3; Binding of serum 6 to linear peptide (PEPSCAN-ELISA) [1]: 0.4; Binding of serum 37 to linear peptide (PEPSCAN-ELISA) [1]: 0.7; Binding of serum 62 to linear peptide (PEPSCAN-ELISA) [1]: 0.7; Binding of serum London to linear peptide (PEPSCAN-ELISA) [1]: 0.5; Binding of serum SARS-green to linear peptide (PEPSCAN-ELISA) [1]: 0.7; Binding of serum SARS-yellow to linear peptide (PEPSCAN-ELISA) [1]: 0.9; Binding of Control Serum Blood-Bank to Looped peptides [2]: 0.6; Binding of Control serum Blood-bank to linear peptides [2]: 0.7; Binding of Control serum LUMC to linear peptides [2]: 0.8; Binding of Control serum LUMC to looped peptides [2]: 0.6
